Measurements published in US6770597B2, “Benzohydrazide derivatives as herbicides and desiccant compositions containing them” (Ishihara Sangyo Kaisha, Ltd., priority 2002, dated 2004).

What was measured:
Type in all cases: in vivo
[1] = system: barnyardgrass (Echinochloa crus-galli, ECHCG); assay: Greenhouse herbicide screen, post-emerge application, phytotoxicity rating; details: POST emergent, 14 days after application, scale 0-100
How it was run: (§1)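 Phytotoxicity read at 14 days on a 0–100 visual scale. Plants were treated either pre-emergence, one day after planting in sandy loam, or post-emergence at about 2–3 leaves, with acetone sprays at 15–1000 g ai/ha.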

[2] = system: cocklebur (Xanthium strumarium, XANST); assay: as above; details: POST emergent, 14 days after application, scale 0-100
How it was run: as §1

[3] = system: common ragweed (Ambrosia artemisiifolia L., AMBEL); assay: as above; details: POST emergent, 14 days after application, scale 0-100
How it was run: as §1

[4] = system: green foxtail (Setaria viridis, SETVI); assay: as above; details: POST emergent, 14 days after application, scale 0-100
How it was run: as §1

[5] = system: ivyleaf morningglory (Ipomoea hederacea, IPOHE); assay: as above; details: POST emergent, 14 days after application, scale 0-100
How it was run: as §1

[6] = system: johnsongrass (Sorghum halepense, SORHA); assay: as above; details: POST emergent, 14 days after application, scale 0-100
How it was run: as §1

[7] = system: lambsquarters (Chenopodium album, CHEAL); assay: as above; details: POST emergent, 14 days after application, scale 0-100
How it was run: as §1

[8] = system: large crabgrass (Digitaria sanguinalis, DIGSA); assay: as above; details: POST emergent, 14 days after application, scale 0-100
How it was run: as §1

[9] = system: redroot pigweed (Amaranthus retrofiexus, AMARE); assay: as above; details: POST emergent, 14 days after application
How it was run: as §1

[10] = system: sicklepod (Cassia obtusifolia, CASOB); assay: as above; details: POST emergent, 14 days after application, scale 0-100
How it was run: as §1

[11] = system: velvetleaf (Abutilon theophrasti, ABUTH); assay: as above; details: POST emergent, 14 days after application, scale 0-100
How it was run: as §1

[12] = system: field corn (Zea mays L., var. Dekalb 535, CORN); assay: Greenhouse herbicide screen, post-emerge application, crop damage rating; details: POST emergent, 14 days after application, scale 0-100
How it was run: as §1

[13] = system: upland rice (Oryza sp., var.Cocodrie, RICE); assay: as above; details: POST emergent, 14 days after application, scale 0-100
How it was run: as §1

[14] = system: barnyardgrass (Echinochloa crus-galli, ECHCG); assay: Greenhouse herbicide screen, pre-emerge application, phytotoxicity rating; details: PRE emergent, 14 days after application, rating scale 0-100
How it was run: as §1

[15] = system: cocklebur (Xanthium strumarium, XANST); assay: as above; details: PRE emergent, 14 days after application, rating scale 0-100
How it was run: as §1

[16] = system: common ragweed (Ambrosia artemisiifolia L., AMBEL); assay: as above; details: PRE emergent, 14 days after application, rating scale 0-100
How it was run: as §1

[17] = system: green foxtail (Setaria viridis, SETVI); assay: as above; details: PRE emergent, 14 days after application, rating scale 0-100
How it was run: as §1

[18] = system: ivyleaf morningglory (Ipomoea hederacea, IPOHE); assay: as above; details: PRE emergent, 14 days after application, rating scale 0-100
How it was run: as §1

[19] = system: johnsongrass (Sorghum halepense, SORHA); assay: as above; details: PRE emergent, 14 days after application, rating scale 0-100
How it was run: as §1

[20] = system: lambsquarters (Chenopodium album, CHEAL); assay: as above; details: PRE emergent, 14 days after application, rating scale 0-100
How it was run: as §1

[21] = system: large crabgrass (Digitaria sanguinalis, DIGSA); assay: as above; details: PRE emergent, 14 days after application, rating scale 0-100
How it was run: as §1

[22] = system: redroot pigweed (Amaranthus retrofiexus, AMARE); assay: as above; details: PRE emergent, 14 days after application, rating scale 0-100
How it was run: as §1

[23] = system: sicklepod (Cassia obtusifolia, CASOB); assay: as above; details: PRE emergent, 14 days after application, rating scale 0-100
How it was run: as §1

[24] = system: velvetleaf (Abutilon theophrasti, ABUTH); assay: as above; details: PRE emergent, 14 days after application, rating scale 0-100
How it was run: as §1

[25] = system: field corn (Zea mays L., var. Dekalb 535, CORN); assay: Greenhouse herbicide screen, pre-emerge application, crop damage rating; details: PRE emergent, 14 days after application, rating scale 0-100
How it was run: as §1

[26] = system: upland rice (Oryza sp., var.Cocodrie, RICE); assay: as above; details: PRE emergent, 14 days after application, rating scale 0-100
How it was run: as §1

[27] = 63 g ai/ha, scale 0-100 (0 no damage, 100 complete death)

CC(=O)OC(=NN1C(C)CCCC1C)c1cc(-n2c(=O)cc(C(F)(F)F)n(C)c2=O)c(F)cc1Cl (stereo not drawn) [Compound 4-9]
35: phytotoxicity rating XANST ([15]; 63 g ai/ha)
10: crop damage rating RICE ([26]; 63 g ai/ha)
80: phytotoxicity rating SORHA ([6]; 250 g ai/ha) | phytotoxicity rating CASOB ([23]; 63 g ai/ha)
100: phytotoxicity rating SETVI ([4]; 250 g ai/ha) | phytotoxicity rating IPOHE ([5]; 250 g ai/ha) | phytotoxicity rating CHEAL ([7]; 63 g ai/ha) | phytotoxicity rating CHEAL ([7]; 250 g ai/ha) | phytotoxicity rating AMARE [9, 27] | phytotoxicity rating AMARE ([9]; 250 g ai/ha, scale 0-100) | phytotoxicity rating ABUTH ([11]; 63 g ai/ha) | phytotoxicity rating ABUTH ([11]; 250 g ai/ha) | phytotoxicity rating XANST ([15]; 250 g ai/ha) | phytotoxicity rating AMBEL ([16]; 250 g ai/ha) | phytotoxicity rating SETVI ([17]; 63 g ai/ha) | phytotoxicity rating SETVI ([17]; 250 g ai/ha) | phytotoxicity rating IPOHE ([18]; 63 g ai/ha) | phytotoxicity rating IPOHE ([18]; 250 g ai/ha) | phytotoxicity rating SORHA ([19]; 250 g ai/ha) | phytotoxicity rating CHEAL ([20]; 63 g ai/ha) | phytotoxicity rating CHEAL ([20]; 250 g ai/ha) | phytotoxicity rating DIGSA ([21]; 250 g ai/ha) | phytotoxicity rating AMARE ([22]; 63 g ai/ha) | phytotoxicity rating AMARE ([22]; 250 g ai/ha) | phytotoxicity rating CASOB ([23]; 250 g ai/ha) | phytotoxicity rating ABUTH ([24]; 63 g ai/ha) | phytotoxicity rating ABUTH ([24]; 250 g ai/ha)
95: phytotoxicity rating IPOHE ([5]; 63 g ai/ha) | crop damage rating CORN ([25]; 250 g ai/ha)
50: phytotoxicity rating DIGSA ([8]; 63 g ai/ha) | crop damage rating CORN ([12]; 250 g ai/ha)
99: phytotoxicity rating AMBEL ([3]; 250 g ai/ha) | phytotoxicity rating DIGSA ([8]; 250 g ai/ha) | phytotoxicity rating ECHCG ([14]; 250 g ai/ha) | phytotoxicity rating DIGSA ([21]; 63 g ai/ha)
15: phytotoxicity rating ECHCO ([1]; 250 g ai/ha) | crop damage rating RICE ([26]; 250 g ai/ha)
55: phytotoxicity rating ECHCG ([14]; 63 g ai/ha)
30: phytotoxicity rating XANST ([2]; 63 g ai/ha) | crop damage rating CORN ([25]; 63 g ai/ha)
0: phytotoxicity rating ECHCO ([1]; 63 g ai/ha) | phytotoxicity rating SORHA ([6]; 63 g ai/ha) | crop damage rating CORN ([12]; 63 g ai/ha) | crop damage rating RICE ([13]; 63 g ai/ha) | crop damage rating RICE ([13]; 250 g ai/ha)
65: phytotoxicity rating SETVI ([4]; 63 g ai/ha) | phytotoxicity rating SORHA ([19]; 63 g ai/ha)
90: phytotoxicity rating CASOB ([10]; 250 g ai/ha) | phytotoxicity rating AMBEL ([16]; 63 g ai/ha)
60: phytotoxicity rating XANST ([2]; 250 g ai/ha) | phytotoxicity rating AMBEL ([3]; 63 g ai/ha) | phytotoxicity rating CASOB ([10]; 63 g ai/ha)

CC(=NN=C(OS(C)(=O)=O)c1cc(-n2c(=O)cc(C(F)(F)F)n(C)c2=O)c(F)cc1Cl)C(C)(C)C [Compound 5-3]
50: phytotoxicity rating CASOB ([10]; 63 g ai/ha) | crop damage rating CORN ([25]; 63 g ai/ha)
95: phytotoxicity rating ABUTH ([11]; 63 g ai/ha)
60: phytotoxicity rating SETVI ([4]; 63 g ai/ha) | phytotoxicity rating DIGSA ([8]; 63 g ai/ha) | crop damage rating CORN ([12]; 63 g ai/ha) | phytotoxicity rating AMBEL ([16]; 63 g ai/ha) | phytotoxicity rating DIGSA ([21]; 63 g ai/ha)
70: phytotoxicity rating XANST ([2]; 63 g ai/ha) | phytotoxicity rating CASOB ([23]; 63 g ai/ha)
80: phytotoxicity rating CHEAL ([7]; 63 g ai/ha) | phytotoxicity rating IPOHE ([18]; 63 g ai/ha)
10: crop damage rating RICE ([13]; 63 g ai/ha)
100: phytotoxicity rating ECHCO ([1]; 63 g ai/ha) | phytotoxicity rating IPOHE ([5]; 63 g ai/ha) | phytotoxicity rating CHEAL ([20]; 63 g ai/ha) | phytotoxicity rating AMARE ([22]; 63 g ai/ha) | phytotoxicity rating ABUTH ([24]; 63 g ai/ha)
90: phytotoxicity rating AMBEL ([3]; 63 g ai/ha) | phytotoxicity rating SORHA ([19]; 63 g ai/ha)
99: phytotoxicity rating AMARE [9, 27]
55: phytotoxicity rating SETVI ([17]; 63 g ai/ha)
30: phytotoxicity rating SORHA ([6]; 63 g ai/ha) | phytotoxicity rating ECHCG ([14]; 63 g ai/ha) | phytotoxicity rating XANST ([15]; 63 g ai/ha) | crop damage rating RICE ([26]; 63 g ai/ha)
